From US6462038B1, “Androgen receptor modulator compounds and methods” (Ligand Pharmaceuticals, Inc., priority 1999, dated 2002) come the findings set out here.

A value given as a limit tells only on which side of the number the result lay.

Common to all, as to assay type: cell-based
In test [1] the target is T1, ER (Homo sapiens, UniProt P03372).
T1 construct: expressed in transfected cells; host or cells: CV-1 cells
Briefly: co-transfection assay, ER antagonist. Here is the method:
(§1) CV-1 cells (African green monkey kidney fibroblasts) were cultured in the presence of Dulbecco's Modified Eagle Medium (DMEM) supplemented with 10% charcoal resin-stripped fetal bovine serum (CH-FBS) then transferred to 96-well microtiter plates one day prior to transfection.
(§2) Three to four replicates were used for each sample.
(§3) After 40 hours, the cells were washed with PBS, lysed with a Triton X-100-based buffer and assayed for LUC and β-Gal activities using a luminometer or spectrophotometer, respectively. For each replicate, the normalized response (NR) was calculated as: […]

The next test concerns the target T2, GR (Homo sapiens, UniProt P04150).
T2 construct: expressed in transfected cells; host or cells: CV-1 cells
T2 sequence (P04150 1-777): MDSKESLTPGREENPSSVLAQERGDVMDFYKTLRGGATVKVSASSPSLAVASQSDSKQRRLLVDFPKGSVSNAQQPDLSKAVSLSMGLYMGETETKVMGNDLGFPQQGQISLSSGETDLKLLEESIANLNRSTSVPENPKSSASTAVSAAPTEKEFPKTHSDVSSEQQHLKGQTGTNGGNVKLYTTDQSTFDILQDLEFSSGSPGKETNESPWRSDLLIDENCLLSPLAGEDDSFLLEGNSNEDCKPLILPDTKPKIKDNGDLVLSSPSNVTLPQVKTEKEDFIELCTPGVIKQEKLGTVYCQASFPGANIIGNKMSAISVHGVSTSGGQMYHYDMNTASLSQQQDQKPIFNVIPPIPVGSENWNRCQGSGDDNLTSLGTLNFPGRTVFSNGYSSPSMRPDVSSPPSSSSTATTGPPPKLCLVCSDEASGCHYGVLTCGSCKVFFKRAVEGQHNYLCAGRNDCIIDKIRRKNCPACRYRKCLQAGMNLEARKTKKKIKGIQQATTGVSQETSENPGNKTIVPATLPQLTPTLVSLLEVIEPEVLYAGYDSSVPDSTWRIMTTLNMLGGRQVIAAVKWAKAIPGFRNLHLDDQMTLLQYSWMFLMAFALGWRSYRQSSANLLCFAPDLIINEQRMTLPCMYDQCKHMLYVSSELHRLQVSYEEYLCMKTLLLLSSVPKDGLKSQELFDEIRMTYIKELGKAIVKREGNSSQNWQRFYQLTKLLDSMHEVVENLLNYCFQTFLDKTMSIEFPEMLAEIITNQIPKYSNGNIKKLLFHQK
Nature of the test: co-transfection assay, GR antagonist. Here is the method:
as §1, §2, §3

In test [2] the target is T3, PR (Homo sapiens, UniProt P06401).
T3 construct: expressed in transfected cells; host or cells: CV-1 cells
T3 sequence (P06401 1-933): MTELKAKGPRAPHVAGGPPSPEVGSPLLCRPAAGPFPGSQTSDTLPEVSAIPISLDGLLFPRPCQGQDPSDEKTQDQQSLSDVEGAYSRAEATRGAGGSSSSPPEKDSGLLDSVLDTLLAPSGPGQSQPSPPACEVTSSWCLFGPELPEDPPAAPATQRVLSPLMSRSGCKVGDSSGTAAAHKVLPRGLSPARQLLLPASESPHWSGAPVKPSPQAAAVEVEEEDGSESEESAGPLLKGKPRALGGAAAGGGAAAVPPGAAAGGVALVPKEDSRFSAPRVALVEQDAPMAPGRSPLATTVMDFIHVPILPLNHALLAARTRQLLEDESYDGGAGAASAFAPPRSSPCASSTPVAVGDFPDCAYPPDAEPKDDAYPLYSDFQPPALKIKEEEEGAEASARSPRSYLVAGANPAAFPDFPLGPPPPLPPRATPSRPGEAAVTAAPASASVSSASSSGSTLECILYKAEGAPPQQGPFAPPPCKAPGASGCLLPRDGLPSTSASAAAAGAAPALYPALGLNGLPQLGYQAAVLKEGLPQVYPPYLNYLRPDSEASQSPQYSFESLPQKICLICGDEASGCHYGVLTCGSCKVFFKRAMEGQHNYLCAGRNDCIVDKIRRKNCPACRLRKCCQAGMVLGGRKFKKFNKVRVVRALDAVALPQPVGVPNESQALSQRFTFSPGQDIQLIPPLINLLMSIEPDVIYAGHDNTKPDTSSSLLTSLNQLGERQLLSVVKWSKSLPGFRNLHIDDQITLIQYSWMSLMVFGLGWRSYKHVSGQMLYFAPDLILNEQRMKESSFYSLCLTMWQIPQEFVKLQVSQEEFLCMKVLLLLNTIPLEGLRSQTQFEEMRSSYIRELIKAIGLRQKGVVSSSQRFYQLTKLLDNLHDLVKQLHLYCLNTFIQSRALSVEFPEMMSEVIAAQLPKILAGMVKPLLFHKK
Nature of the test: co-transfection assay, PR agonist. As for the experimental part:
as §1, §2, §3

The target of test [3] is T3, PR. Briefly: co-transfection assay, PR antagonist (in presence of progesterone). Here is the method: as §1, §2, §3
Test [4] deals with T1, ER. Briefly: co-transfection assay, ER agonist. As for the experimental part:
as §1, §2, §3

A further test deals with T4, hAR (Homo sapiens, UniProt P10275).
T4 construct: expressed in transfected cells; host or cells: CV-1 cells (African green monkey kidney fibroblasts)
T4 sequence (P10275 1-920): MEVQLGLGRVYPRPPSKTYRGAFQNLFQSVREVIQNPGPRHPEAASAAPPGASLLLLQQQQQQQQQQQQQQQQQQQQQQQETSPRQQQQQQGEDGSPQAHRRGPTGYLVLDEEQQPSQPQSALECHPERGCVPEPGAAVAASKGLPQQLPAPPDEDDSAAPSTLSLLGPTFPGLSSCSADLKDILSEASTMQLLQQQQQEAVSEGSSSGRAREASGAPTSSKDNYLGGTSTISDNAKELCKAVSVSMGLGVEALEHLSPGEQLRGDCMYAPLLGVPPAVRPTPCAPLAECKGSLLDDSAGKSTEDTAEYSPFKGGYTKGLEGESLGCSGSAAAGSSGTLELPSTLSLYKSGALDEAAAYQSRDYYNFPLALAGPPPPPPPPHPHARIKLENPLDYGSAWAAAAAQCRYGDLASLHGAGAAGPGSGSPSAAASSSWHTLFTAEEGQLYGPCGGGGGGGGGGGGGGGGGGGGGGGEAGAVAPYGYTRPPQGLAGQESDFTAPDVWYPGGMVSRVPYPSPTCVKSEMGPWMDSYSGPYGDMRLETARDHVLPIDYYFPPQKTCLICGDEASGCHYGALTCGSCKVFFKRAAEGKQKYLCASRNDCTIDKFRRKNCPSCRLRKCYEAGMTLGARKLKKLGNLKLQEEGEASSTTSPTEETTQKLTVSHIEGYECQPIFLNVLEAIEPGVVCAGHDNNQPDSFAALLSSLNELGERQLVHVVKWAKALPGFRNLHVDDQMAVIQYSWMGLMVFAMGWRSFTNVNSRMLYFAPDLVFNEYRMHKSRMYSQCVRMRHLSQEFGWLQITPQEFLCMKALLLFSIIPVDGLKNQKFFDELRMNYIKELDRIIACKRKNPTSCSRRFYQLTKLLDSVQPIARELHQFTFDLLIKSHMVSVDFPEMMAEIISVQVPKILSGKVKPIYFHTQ
Briefly: co-transfection assay, AR antagonist (in presence of DHT), CV-1 cells. Particulars: for AR Antagonist CV-1 Cells Efficacy (%): hAR in CV-1 cells, maximal inhibition, DHT at EC50.

T1 sequence (P03372 whole entry): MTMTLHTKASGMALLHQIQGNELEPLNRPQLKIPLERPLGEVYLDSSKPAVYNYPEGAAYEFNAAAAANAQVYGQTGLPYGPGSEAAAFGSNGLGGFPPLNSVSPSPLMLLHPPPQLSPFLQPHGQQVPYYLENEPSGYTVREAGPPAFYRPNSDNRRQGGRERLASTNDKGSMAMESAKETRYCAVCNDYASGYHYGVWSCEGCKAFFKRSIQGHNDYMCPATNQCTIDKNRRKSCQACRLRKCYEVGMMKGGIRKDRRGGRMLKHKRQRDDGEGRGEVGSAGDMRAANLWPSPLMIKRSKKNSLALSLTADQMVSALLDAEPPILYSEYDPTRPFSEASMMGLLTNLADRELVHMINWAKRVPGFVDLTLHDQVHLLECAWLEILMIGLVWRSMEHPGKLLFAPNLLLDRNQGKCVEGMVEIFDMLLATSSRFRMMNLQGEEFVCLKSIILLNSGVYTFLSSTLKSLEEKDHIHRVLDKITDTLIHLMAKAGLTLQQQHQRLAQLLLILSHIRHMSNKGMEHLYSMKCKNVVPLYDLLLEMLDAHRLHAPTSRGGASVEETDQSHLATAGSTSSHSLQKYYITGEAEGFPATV

For the compound `CCN1CCOc2cc3c(cc21)c(C(F)(F)F)cc(=O)n3C` [Compound 104, 1-Ethyl-1,2,3,6-tetrahydro-6-methyl-9-(trifluoromethyl)-7H-[1,4]oxazino[3,2-g]quinolin-7-one], the IC50 on ER [1] was more than 10 µM; at GR it was 0.83 µM; at PR [3], 2 µM; at hAR, 0.026 µM. The EC50 at PR [2] and at ER [4] was more than 10 µM each time. Besides, the “AR Antagonist CV-1 Cells Efficacy (%)” value on hAR is recorded as 68%.
In the case of `CN1CCOc2cc3c(cc21)c(C(F)(F)F)cc(=O)n3C` [Compound 102, 1,2,3,6-Tetrahydro-1,6-dimethyl-9-(trifluoromethyl)-7H-[1,4]oxazino[3,2-g]quinolin-7-one], the IC50 amounted to 5.9 µM against ER [1], 3.2 µM on GR, 4.1 µM on PR [3] and 0.022 µM at hAR. Besides, the EC50 on PR [2] and on ER [4] was more than 10 µM throughout. On hAR, the “AR Antagonist CV-1 Cells Efficacy (%)” value was found to be 58%.
Regarding `O=C1COc2cc3[nH]c(=O)cc(C(F)(F)F)c3cc2N1CC(F)(F)F` [Compound 137, 1,6-Dihydro-1-(2,2,2-trifluoroethyl)-9-(trifluoromethyl)-3H-[1,4]oxazino[3,2-g]-quinolin-2,7-dione], the IC50 against ER [1] was more than 10 µM; at GR, more than 10 µM; on PR [3] it was more than 10 µM; at hAR it was 0.018 µM. The EC50 at PR [2] and at ER [4] was more than 10 µM each time. Besides, at hAR, the “AR Antagonist CV-1 Cells Efficacy (%)” value is reported as 84%.
With `O=c1cc(C(F)(F)F)c2cc3c(cc2[nH]1)OCCN3CC(F)(F)F` [Compound 105, 1,2,3,6-Tetrahydro-1-(2,2,2-trifluoroethyl)-9-(trifluoromethyl)-7H-[1,4]oxazino[3,2-g]quinolin-7-one], the results for the IC50 against ER [1], on GR and on PR [3] were more than 10 µM, 6.7 µM and 3 µM, respectively. Besides, the EC50 on PR [2] and at ER [4] was more than 10 µM each time.
